Measurements reported in patent US12552785B2, “Pyrazolo[1,5-α]pyridine derivative, preparation method therefor, and composition and use thereof” (SHENZHEN ZHONGGE BIOLOGICAL TECHNOLOGY CO., LTD., priority 2020, dated 2026).

Assays:
Ba/F3-KIF5B-RET cell = biological target: T1, Ba/F3-KIF5B-RET cell (Homo sapiens, UniProt P07949); test: CellTiter-Glo luminescence assay for inhibitory activity against Ba/F3-KIF5B-RET cell; format: cell-based; settings: Ba/F3-KIF5B-RET cells, 72 h
T1 construct: fused on or other part: P33176 (Kinesin-1 heavy chain)
Excerpt: (c) In Vitro Screening Experiment—CellTiter-Glo Luminescence Assay for Testing the Inhibitory Activity of Compounds Against Ba/F3-KIF5B-RET Cell Experimental Procedure: 1. The mammalian cell expression vector containing human KIF5B-RET cDNA was introduced into Ba/F3 cells using the Neon® transfection system method, and the surviving clones screened by puromycin were subjected to cell growth inhibitory function experiments and Western blotting to verify cell lines with stable and high expression of RET. 2. […] 3. The test compound (5 mM stock) was diluted 2.5 folds to 2 mM with 100% dimethyl sulfoxide; and the compound was diluted into 10 concentrations at an equal ratio of 1:3 in a 384-well dilution plate. 4. […] 6. […] 7. By fitting the data with XLFit 5.0 based on the parameters formula, the IC50 value was calculated as: Y=Bottom+(Top−Bottom)/(1+10^((Log IC50−X)*HillSlope)).

VEGFR2 = VEGFR2 (Homo sapiens, UniProt P35968); test: HTRF method for testing the inhibitory activity of compounds against VEGFR2; format: biochemical; settings: IC50 by nonlinear regression, read-out: VEGFR2 kinase activity
Description: (b) In Vitro Screening Experiment—HTRF Method for Testing the Inhibitory Activity of Compounds Against VEGFR2 Experimental Procedure: 1. […] The test compound (5 mM stock solution) was diluted 5 folds to 1 mM with 100% dimethyl sulfoxide; the compound was diluted into 10 concentrations at an equal ratio of 1:3 in a 384-well dilution plate. 3. […] 6. […] The reaction solution was centrifuged at 1000 g for 30 s, and then sealed, and incubated at room temperature for 40 min. 8. […] 10. […] 11. […] 12. IC50 was calculated with software GraphPad 6.0 by fitting inhibition values and logarithms of compound concentrations to a nonlinear regression (dose response−variable slope).

RET = RET (Homo sapiens, UniProt P07949); test: HTRF method for testing the inhibitory activity of compounds against RET; format: biochemical; settings: IC50 by nonlinear regression, read-out: RET kinase activity
Description: (a) In Vitro Screening Experiment-HTRF Method for Testing the Inhibitory Activity of Compounds Against RET Experimental Procedure: 1. […] 2. The test compound (5 mM stock solution) was diluted 5 folds to 1 mM with 100% dimethyl sulfoxide; the compound was diluted into 10 concentrations at an equal ratio of 1:3 in a 384-well dilution plate. 3. 0.2 μL of the serially diluted compound was added to a 384-well plate using an Echo 550 pipetting system, 2 replicate wells for each concentration, and the final concentration of dimethyl sulfoxide was 0.5% (v/v). […] 6. […] The reaction solution was centrifuged at 1000 g for 30 s, and then sealed, and incubated at room temperature for 30 min. 8. […] 10. […] 11. […] IC50 was calculated with software GraphPad 6.0 by fitting inhibition values and logarithms of compound concentrations to a nonlinear regression (dose response−variable slope).

RET, sequence (P07949 29-1114): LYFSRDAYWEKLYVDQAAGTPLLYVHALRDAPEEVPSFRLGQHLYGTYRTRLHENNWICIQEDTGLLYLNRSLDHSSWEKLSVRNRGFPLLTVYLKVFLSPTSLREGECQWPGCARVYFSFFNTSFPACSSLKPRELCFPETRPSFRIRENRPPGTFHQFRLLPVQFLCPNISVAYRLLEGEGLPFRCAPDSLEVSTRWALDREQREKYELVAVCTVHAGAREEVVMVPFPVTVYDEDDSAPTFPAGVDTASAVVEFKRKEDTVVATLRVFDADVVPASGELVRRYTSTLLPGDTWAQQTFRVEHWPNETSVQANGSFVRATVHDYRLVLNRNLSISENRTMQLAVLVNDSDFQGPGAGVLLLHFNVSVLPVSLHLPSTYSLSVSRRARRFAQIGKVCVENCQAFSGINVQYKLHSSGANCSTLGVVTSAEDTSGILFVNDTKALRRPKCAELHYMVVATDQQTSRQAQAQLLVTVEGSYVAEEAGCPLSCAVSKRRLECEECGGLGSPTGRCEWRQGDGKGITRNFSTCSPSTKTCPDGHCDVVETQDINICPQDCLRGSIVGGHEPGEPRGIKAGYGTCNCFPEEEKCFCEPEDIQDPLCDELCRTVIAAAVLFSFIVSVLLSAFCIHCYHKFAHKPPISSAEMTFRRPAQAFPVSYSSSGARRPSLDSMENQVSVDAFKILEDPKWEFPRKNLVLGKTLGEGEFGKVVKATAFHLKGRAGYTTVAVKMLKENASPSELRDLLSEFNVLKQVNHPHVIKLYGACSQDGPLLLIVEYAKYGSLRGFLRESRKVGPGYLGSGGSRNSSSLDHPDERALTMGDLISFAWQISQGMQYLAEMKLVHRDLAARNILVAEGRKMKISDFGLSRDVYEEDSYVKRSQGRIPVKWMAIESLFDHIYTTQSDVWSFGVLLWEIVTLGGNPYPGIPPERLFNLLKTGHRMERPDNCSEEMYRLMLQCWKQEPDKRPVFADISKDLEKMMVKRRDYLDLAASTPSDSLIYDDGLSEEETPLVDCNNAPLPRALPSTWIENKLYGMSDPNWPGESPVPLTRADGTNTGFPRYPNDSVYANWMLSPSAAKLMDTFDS
T1 sequence (P07949 whole entry, stated change not applied, the tested form may be a part): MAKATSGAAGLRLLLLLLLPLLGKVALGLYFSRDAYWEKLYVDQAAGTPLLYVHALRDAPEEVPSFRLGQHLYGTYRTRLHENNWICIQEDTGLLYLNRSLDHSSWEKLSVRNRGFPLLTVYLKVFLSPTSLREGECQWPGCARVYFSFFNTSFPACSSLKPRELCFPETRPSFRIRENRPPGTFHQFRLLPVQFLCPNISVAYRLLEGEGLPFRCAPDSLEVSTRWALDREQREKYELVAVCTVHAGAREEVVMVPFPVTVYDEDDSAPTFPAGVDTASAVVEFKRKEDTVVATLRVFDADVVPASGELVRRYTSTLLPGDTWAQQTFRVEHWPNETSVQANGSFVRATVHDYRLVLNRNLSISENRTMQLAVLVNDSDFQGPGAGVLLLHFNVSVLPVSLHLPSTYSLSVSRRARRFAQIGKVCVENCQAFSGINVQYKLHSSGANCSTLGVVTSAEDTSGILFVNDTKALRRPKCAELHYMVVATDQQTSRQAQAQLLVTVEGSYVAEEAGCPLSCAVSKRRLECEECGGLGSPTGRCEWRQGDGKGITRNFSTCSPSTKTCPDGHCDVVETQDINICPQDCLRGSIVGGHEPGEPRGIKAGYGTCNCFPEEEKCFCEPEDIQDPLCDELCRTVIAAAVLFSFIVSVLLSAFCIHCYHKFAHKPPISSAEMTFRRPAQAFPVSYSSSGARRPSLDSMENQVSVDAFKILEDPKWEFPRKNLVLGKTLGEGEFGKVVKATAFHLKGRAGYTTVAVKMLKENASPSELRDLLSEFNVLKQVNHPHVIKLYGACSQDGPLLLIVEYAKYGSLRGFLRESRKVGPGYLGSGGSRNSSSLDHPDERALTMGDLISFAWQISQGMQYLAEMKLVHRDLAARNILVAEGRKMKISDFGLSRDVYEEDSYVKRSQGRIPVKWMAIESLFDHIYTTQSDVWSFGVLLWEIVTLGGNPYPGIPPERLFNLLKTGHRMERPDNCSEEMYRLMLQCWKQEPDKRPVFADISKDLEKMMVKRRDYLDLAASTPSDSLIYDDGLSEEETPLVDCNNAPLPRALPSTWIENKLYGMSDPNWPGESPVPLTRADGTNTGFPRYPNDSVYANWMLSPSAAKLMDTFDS
VEGFR2, sequence (P35968 20-1356, species assumed): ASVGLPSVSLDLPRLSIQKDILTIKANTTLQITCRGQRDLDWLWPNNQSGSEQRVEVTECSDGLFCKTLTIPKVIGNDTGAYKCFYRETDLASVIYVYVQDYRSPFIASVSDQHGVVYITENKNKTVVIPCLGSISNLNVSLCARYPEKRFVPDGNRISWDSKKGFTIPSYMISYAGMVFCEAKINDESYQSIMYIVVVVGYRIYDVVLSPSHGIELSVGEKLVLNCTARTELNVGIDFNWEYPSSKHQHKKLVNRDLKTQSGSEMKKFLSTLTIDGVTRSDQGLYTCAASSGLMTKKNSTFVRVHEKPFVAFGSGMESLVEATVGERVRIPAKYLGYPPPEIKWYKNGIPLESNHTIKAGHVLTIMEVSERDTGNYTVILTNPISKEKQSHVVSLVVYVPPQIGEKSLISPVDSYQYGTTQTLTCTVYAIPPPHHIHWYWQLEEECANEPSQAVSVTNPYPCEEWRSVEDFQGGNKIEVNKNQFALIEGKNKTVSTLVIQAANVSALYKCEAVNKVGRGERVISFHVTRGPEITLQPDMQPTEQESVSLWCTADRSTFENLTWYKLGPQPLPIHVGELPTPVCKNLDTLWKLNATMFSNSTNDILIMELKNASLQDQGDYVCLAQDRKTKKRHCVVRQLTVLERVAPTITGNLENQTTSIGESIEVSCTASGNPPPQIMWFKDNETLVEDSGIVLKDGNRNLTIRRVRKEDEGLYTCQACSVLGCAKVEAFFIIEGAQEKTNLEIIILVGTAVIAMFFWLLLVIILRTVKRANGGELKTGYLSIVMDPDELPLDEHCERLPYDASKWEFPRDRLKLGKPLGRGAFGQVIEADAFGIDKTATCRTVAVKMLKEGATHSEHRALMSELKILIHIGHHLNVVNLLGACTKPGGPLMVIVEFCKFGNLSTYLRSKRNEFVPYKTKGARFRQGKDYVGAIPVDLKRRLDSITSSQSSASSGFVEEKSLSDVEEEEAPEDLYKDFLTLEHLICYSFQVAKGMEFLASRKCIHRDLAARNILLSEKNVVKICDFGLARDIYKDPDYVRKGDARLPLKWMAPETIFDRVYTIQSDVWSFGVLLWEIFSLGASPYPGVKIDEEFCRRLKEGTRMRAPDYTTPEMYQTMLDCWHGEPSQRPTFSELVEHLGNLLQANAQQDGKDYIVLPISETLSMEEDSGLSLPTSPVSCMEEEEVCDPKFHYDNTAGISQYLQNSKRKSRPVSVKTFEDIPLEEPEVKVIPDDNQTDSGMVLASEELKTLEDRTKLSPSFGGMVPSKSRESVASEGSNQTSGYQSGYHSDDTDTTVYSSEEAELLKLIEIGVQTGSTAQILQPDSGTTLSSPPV

| SMILES | GI50 (Ba/F3-KIF5B-RET cell) [nM] | IC50 (VEGFR2) [nM] | IC50 (RET) [nM] |
| --- | --- | --- | --- |
| CC(C)(O)COc1cc(-c2ccc(NCc3ccc(-n4cc(F)cn4)nc3)nc2)c2c(C#N)cnn2c1 [Compound 1, 4-(6-(((6-(4-fluoro-1H-pyrazol-1-yl)pyridin-3-yl)methyl)amino)pyridin-3-yl)-6-(2-hydroxy-2-methylpropoxy)pyrazolo[1,5-a]pyridine-3-carbonitrile] | 13.9 | 7.37 | 0.34 |
| C[C@H](Nc1ccc(-c2cc(OCC(C)(C)O)cn3ncc(C#N)c23)cn1)c1ccc(-n2cc(F)cn2)nc1 [Compound 2, (S)-4-(6-((1-(6-(4-fluoro-1H-pyrazol-1-yl)pyridin-3-yl)ethyl)amino)pyridin-3-yl)-6-(2-hydroxy-2-methylpropoxy)pyrazolo[1,5-a]pyridine-3-carbonitrile] | 10.7 | 3.51 | 0.46 |
| N#Cc1cnn2cc(OC[C@H]3CNCCO3)cc(-c3ccc(NCc4ccc(-n5cc(F)cn5)nc4)nc3)c12 [Compound 3] | 18 | 1.08 | 0.19 |
| C[C@H](Nc1ccc(-c2cc(OC[C@H]3CNCCO3)cn3ncc(C#N)c23)cn1)c1ccc(-n2cc(F)cn2)nc1 [Compound 4] | 12 | 0.31 | 0.18 |
| C[C@@H](Nc1ccc(-c2cc(OCC(C)(C)O)cn3ncc(C#N)c23)cn1)c1ccc(-n2cc(F)cn2)nc1 [Compound 5, (R)-4-(6-((1-(6-(4-fluoro-1H-pyrazol-1-yl)pyridin-3-yl)ethyl)amino)pyridin-3-yl)-6-(2-hydroxy-2-methylpropoxy)pyrazolo[1,5-a]pyridine-3-carbonitrile] | 85.1 | 44.7 | 6.3 |
| CC(Nc1ccc(-c2cc(OCC(C)(C)O)cn3ncc(C#N)c23)cn1)c1ccc(-n2cc(F)cn2)nc1 (stereo not drawn) [Compound 6] | 50.5 | 11.8 | 1.2 |
| CC(C)(O)COc1cc(-c2ccc(NCc3ccc(-n4ccnc4)nc3)nc2)c2c(C#N)cnn2c1 [Compound 7] | 203 | 72.1 | 7.14 |
| CC(C)(O)COc1cc(-c2ccc(NCc3ccc(N4CCCC4=O)nc3)nc2)c2c(C#N)cnn2c1 [Compound 8, 6-(2-hydroxy-2-methylpropoxy)-4-(6-((6-(2-oxopyrrolidin-1-yl)pyridin-3-yl)methylamino)pyridine-3-yl)pyrazolo[1,5-a]pyridine-3-carbonitrile] | 68.5 | 170 | 9.4 |
| CC(C)(O)COc1cc(-c2ccc(NCc3ccc(-c4cccnc4)nc3)nc2)c2c(C#N)cnn2c1 [Compound 9, 4-(6-(([2,3′-bipyridyl]-5-ylmethyl)amino)pyridin-3-yl)-6-(2-hydroxy-2-methylpropoxy)pyrazole[1,5-a]pyridine-3-carbonitrile] | 145 | 116 | 19.6 |
| CC(C)(O)COc1cc(-c2ccc(NCc3ccc(N4CCCC4)nc3)nc2)c2c(C#N)cnn2c1 [Compound 10, 6-(2-hydroxy-2-methylpropoxy)-4-(6-(((6-(pyrrolidin-1-yl)pyridin-3-yl)methyl)amino)pyridine-3-yl)pyrazo[1,5-a]pyridine-3-carbonitrile] | 7.3 | 90.8 | 2.08 |
| Cc1cn(-c2ccc(CNc3ccc(-c4cc(OCC(C)(C)O)cn5ncc(C#N)c45)cn3)cn2)cn1 [Compound 11] | 613 | 110 | 12.5 |
| CC(C)(O)COc1cc(-c2ccc(NCc3ccc(N4CCOCC4)nc3)nc2)c2c(C#N)cnn2c1 [Compound 12] | 75.5 | 107 | 12.8 |
| CC(C)(O)COc1cc(-c2ccc(NCc3ccc4cccnc4c3)nc2)c2c(C#N)cnn2c1 [Compound 13] | 50.8 | 136 | 5.17 |
| CN(Cc1ccc2ncccc2c1)c1ccc(-c2cc(OCC(C)(C)O)cn3ncc(C#N)c23)cn1 [Compound 14, 6-(2-hydroxy-2-methylpropoxy)-4-(6-(methyl(quinolin-6-ylmethyl)amino)pyridin-3-yl)pyrazolo[1,5-a]pyridine-3-carbonitrile] | 220 | 347 | 16.6 |
| CC[C@H](Nc1ccc(-c2cc(OCC(C)(C)O)cn3ncc(C#N)c23)cn1)c1ccc(-n2cc(F)cn2)nc1 [Compound 15, (S)-4-(6-((1-(6-(4-fluoro-1H-pyrazol-1-yl)pyridin-3-yl)propyl)amino)pyridin-3-yl)-6-(2-hydroxy-2-methylpropoxy)pyrazolo[1,5-a]pyridine-3-carbonitrile] | 10.4 | 2.95 | 0.58 |
| C=CCOc1cc(-c2ccc(N(C)[C@@H](C)c3ccc(-n4cc(F)cn4)nc3)nc2)c2c(C#N)cnn2c1 [Compound 31, (S)-4-(6-((1-(6-(4-fluoro-1H-pyrazol-1-yl)pyridin-3-yl)ethyl)(methyl)amino)pyridine-3-yl)-6-allyloxypyrazolo[1,5-a]pyridine-3-carbonitrile] | – | > 5000 | 269 |
| Cc1cnn(-c2ccc([C@H](C)N(C)c3ccc(-c4cc(OCC(C)(C)O)cn5ncc(C#N)c45)cn3)cn2)c1 [Compound 37] | 18.6 | 270 | – |
| COc1cc(-c2ccc(N(C)[C@@H](C)c3ccc(-n4cc(F)cn4)nc3)nc2)c2c(C#N)cnn2c1 [Compound 40, (S)-4-(6-((1-(6-(4-fluoro-1H-pyrazol-1-yl)pyridin-3-yl)ethyl)(methyl)amino)pyridine-3-yl)-6-methoxypyrazolo[1,5-a]pyridine-3-carbonitrile] | – | 48.3 | 0.83 |
| C[C@@H](c1ccc(-n2cc(F)cn2)nc1)N(C)c1ccc(-c2cc(OCCF)cn3ncc(C#N)c23)cn1 [Compound 41, (S)-4-(6-((1-(6-(4-fluoro-1H-pyrazol-1-yl)pyridin-3-yl)ethyl)(methyl)amino)pyridine-3-yl)-6-(2-fluoroethoxy)pyrazolo[1,5-a]pyridine-3-carbonitrile] | – | 49.7 | 0.34 |
| CCN(CC)c1ccc([C@H](C)N(C)c2ccc(-c3cc(OCC(C)(C)O)cn4ncc(C#N)c34)cn2)cn1 [Compound 42, (S)-4-(6-((1-(6-(diethylamino)pyridin-3-yl)ethyl)(methyl)amino)pyridin-3-yl)-6-(2-hydroxy-2-methylpropoxy)pyrazolo[1,5-a]pyridine-3-carbonitrile] | – | 199 | 18 |
| C[C@@H](c1ccc(-n2cc(Cl)cn2)nc1)N(C)c1ccc(-c2cc(OCC(C)(C)O)cn3ncc(C#N)c23)cn1 [Compound 45, (S)-4-(6-((1-(6-(4-chloro-1H-pyrazol-1-yl)pyridin-3-yl)ethyl)(methyl)amino)pyridine-3-yl)-6-(2-hydroxy-2-methylpropoxy)pyrazo[1,5-a]pyridine-3-carbonitrile] | 39.3 | 1980 | – |
| CNc1cc(-c2ccc(N(C)[C@@H](C)c3ccc(-n4cc(F)cn4)nc3)nc2)c2c(C#N)cnn2c1 [Compound 52, (S)-4-(6-((1-(6-(4-fluoro-1H-pyrazol-1-yl)pyridin-3-yl)ethyl)(methyl)amino)pyridine-3-yl)-6-(methylamino)pyrazolo[1,5-a]pyridine-3-carbonitrile] | – | 5.62 | 0.29 |
| COCCOc1cc(-c2ccc(N(C)[C@@H](C)c3ccc(-n4cc(F)cn4)nc3)nc2)c2c(C#N)cnn2c1 [Compound 54, (S)-4-(6-((1-(6-(4-fluoro-1H-pyrazol-1-yl)pyridin-3-yl)ethyl)(methyl)amino)pyridine-3-yl)-6-(2-methoxyethoxy)pyrazolo[1,5-a]pyridine-3-carbonitrile] | – | 21.1 | 0.3 |
| C[C@@H](c1ccc(-n2cc(F)cn2)nc1)N(C)c1ccc(-c2cc(N3CCCC3)cn3ncc(C#N)c23)cn1 [Compound 59] | – | 64.3 | 3.49 |
| Cc1ccc([C@H](C)N(C)c2ccc(-c3cc(OCC(C)(C)O)cn4ncc(C#N)c34)cn2)cn1 [Compound 63] | – | 361 | 4.56 |
| C#Cc1cc(-c2ccc(N(C)[C@@H](C)c3ccc(-n4cc(F)cn4)nc3)nc2)c2c(C#N)cnn2c1 [Compound 65] | – | 780 | 2.66 |
| CCc1cc(-c2ccc(N(C)[C@@H](C)c3ccc(-n4cc(F)cn4)nc3)nc2)c2c(C#N)cnn2c1 [Compound 66] | – | 241 | 4.35 |
